Test results reported in ChEMBL document CHEMBL1201862, “PubChem BioAssay data set” (2004).
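Briefly, cells in 96-well plates were exposed to five compound concentrations for 48 h, and endpoints were estimated by linear interpolation. At the GI50, growth is halved.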 Calls of active or inactive are those of the source. Rule as the data show it: active = GI50 up to about 1.1 µM and inactive = higher. Peptide text beside a SMILES is read from it. * marks the point of attachment. Boc = CC(C)(C)OC(=O)*; OBn = c1ccc(CO*)cc1

Assays:
Experiment in all cases: inhibition of tumour cell growth, NCI panel, 48 h
ACHN = tested on: ACHN
TK-10 = tested on: TK-10
HOP-92 = tested on: HOP-92
COLO 205 = tested on: COLO 205
HCC 2998 = tested on: HCC 2998
NCI-H226 = tested on: NCI-H226
UACC-62 = tested on: UACC-62
SF-539 = tested on: SF-539
SK-OV-3 = tested on: SK-OV-3
HCT-15 = tested on: HCT-15
Malme-3M = tested on: Malme-3M
MDA-N = tested on: MDA-N
SR = tested on: SR
Hs-578T = tested on: Hs-578T
MOLT-4 = tested on: MOLT-4
HT-29 = tested on: HT-29
NCI-H23 = tested on: NCI-H23
RPMI-8226 = tested on: RPMI-8226
U-251 = tested on: U-251

Row | Structure (SMILES) | GI50 (ACHN) | GI50 (TK-10) | GI50 (HOP-92) | GI50 (COLO 205) | GI50 (HCC 2998) | GI50 (NCI-H226) | GI50 (UACC-62) | GI50 (SF-539) | GI50 (SK-OV-3) | GI50 (HCT-15) | GI50 (Malme-3M) | GI50 (MDA-N) | GI50 (SR) | GI50 (Hs-578T) | GI50 (MOLT-4) | GI50 (HT-29) | GI50 (NCI-H23) | GI50 (RPMI-8226) | GI50 (U-251)
1 | Cc1cc2c3c(c1)S(=O)(=O)c1cc(Cl)ccc1N3CCC2 | > 100 µM (inactive) | > 100 µM (inactive) | > 100 µM (inactive) | > 100 µM (inactive) | > 100 µM (inactive) | > 100 µM (inactive) | > 100 µM (inactive) | > 100 µM (inactive) | > 100 µM (inactive) | > 100 µM | > 100 µM (inactive) | > 100 µM (inactive) | > 100 µM (inactive) | 22 µM (inactive) | 57.7 µM (inactive) | > 100 µM (inactive) |  |  | 
2 | C=CCC(CC=O)(C(=O)OCC)C(=O)OCC | > 100 µM (inactive) | > 100 µM (inactive) | > 100 µM (inactive) | > 100 µM (inactive) |  | > 100 µM (inactive) | > 100 µM (inactive) | > 100 µM (inactive) | > 100 µM (inactive) | > 100 µM | > 100 µM (inactive) | > 100 µM (inactive) | > 100 µM (inactive) | > 100 µM (inactive) | > 100 µM (inactive) | > 100 µM (inactive) | > 100 µM (inactive) | > 100 µM (inactive) | > 100 µM (inactive)
3 | Cc1csc2c(=O)n(C3OC(CO)C(O)C3O)c(=O)[nH]c12 (stereo unspecified) | > 100 µM (inactive) | 39.5 µM (inactive) | > 100 µM (inactive) | > 100 µM (inactive) |  | > 100 µM (inactive) |  | > 100 µM (inactive) |  |  | > 100 µM (inactive) | > 100 µM (inactive) | > 100 µM (inactive) | > 100 µM (inactive) | > 100 µM (inactive) | > 100 µM (inactive) | > 100 µM (inactive) | > 100 µM (inactive) | > 100 µM (inactive)
4 | C=C(C1=CC(=O)C(C)(C)O1)[C@@H]1CC=C([C@@H]2CC[C@H]3[C@@]2(C)CC[C@H]2C(C)(C)C(=O)[C@H](OC(=O)CC(C)(O)CC(=O)O)C[C@]32C)[C@H](O)O1 (stereo partly specified) | 14 µM (inactive) | 27.4 µM (inactive) | 12.7 µM (inactive) | 12.5 µM (inactive) |  | 16.3 µM (inactive) | 12.1 µM (inactive) | 13 µM (inactive) | 19.2 µM (inactive) | 13.3 µM | 13.4 µM (inactive) | 13.9 µM (inactive) | 12.6 µM (inactive) | 23.9 µM (inactive) | 4.14 µM (inactive) | 16.8 µM (inactive) | 13.6 µM (inactive) | 2.48 µM (inactive) | 13.5 µM (inactive)
5 | CCCC(=O)Nc1cc(/C=C/C(=O)N2CC(CCl)c3ccc([N+](=O)[O-])cc32)n(C)c1 (stereo unspecified) | 50.9 µM (inactive) | 20 µM (inactive) |  | > 100 µM (inactive) | 57.7 µM (inactive) | 21.8 µM (inactive) | > 100 µM (inactive) | 43.4 µM (inactive) | > 100 µM (inactive) | > 100 µM | > 100 µM (inactive) | > 100 µM (inactive) | > 100 µM (inactive) | 26.8 µM (inactive) |  | 21.1 µM (inactive) | > 100 µM (inactive) | 14.5 µM (inactive) | > 100 µM (inactive)
6 | N=c1oc2c(Cl)cc(Cl)cc2cc1C(=O)Nc1ccccn1 | 22 µM (inactive) | 34.5 µM (inactive) |  | > 100 µM (inactive) | 81.5 µM (inactive) | > 100 µM (inactive) | 20.6 µM (inactive) | 40.9 µM (inactive) | 67.5 µM (inactive) | 34.8 µM | > 100 µM (inactive) | 62.1 µM (inactive) | 23.1 µM (inactive) | 20.5 µM (inactive) | 8.24 µM (inactive) | 91.2 µM (inactive) | 41.4 µM (inactive) | 22.3 µM (inactive) | 37.2 µM (inactive)
7 | O=C(c1ccc(Cl)cc1)N1CCN=C1c1cc2ccccc2c2ccccc12 | 17.4 µM (inactive) | 15.2 µM (inactive) | 11.6 µM (inactive) | 16 µM (inactive) |  |  | 14.5 µM (inactive) | 15.7 µM (inactive) | 16.1 µM (inactive) | 16.6 µM | 17.3 µM (inactive) | 16.4 µM (inactive) | 22.6 µM (inactive) | 17.5 µM (inactive) | 33.7 µM (inactive) | 15.8 µM (inactive) | 17.6 µM (inactive) | 19.8 µM (inactive) | 16.3 µM (inactive)
8 | Cc1ccc(/C=C2\CN(C)CC3=C2N=C(S)NC3c2ccc(C)cc2)cc1 (stereo unspecified) | 40.7 µM (inactive) | 0.341 µM (active) | 18.2 µM (inactive) | 19 µM (inactive) | 41.5 µM (inactive) | 27.8 µM (inactive) | 36 µM (inactive) | 39 µM (inactive) | > 100 µM (inactive) | 31.8 µM | 47.3 µM (inactive) | 13.5 µM (inactive) | < 0.01 µM (active) | > 100 µM (inactive) |  | 30.8 µM (inactive) | 39 µM (inactive) |  | 42.8 µM (inactive)
9 | Cc1ccc(S(=O)(=O)N/N=C2\CC(C)OC3=C2CCCCCC3)cc1 (stereo unspecified) | 18.5 µM (inactive) | 20.5 µM (inactive) | 19.6 µM (inactive) | 20.9 µM (inactive) |  | 21.6 µM (inactive) | 14.5 µM (inactive) | 20.5 µM (inactive) | 26.1 µM (inactive) |  | 21.7 µM (inactive) | > 100 µM (inactive) | 17 µM (inactive) | 21.2 µM (inactive) | 14.6 µM (inactive) | 17.5 µM (inactive) | 20.5 µM (inactive) | 21.9 µM (inactive) | 
10 | COc1cc(C2S/C(=C/c3ccccc3)C(=O)N2Cc2ccccc2)cc(OC)c1OC (stereo unspecified) | 64.7 µM (inactive) | > 100 µM (inactive) | 28.8 µM (inactive) | 30.1 µM (inactive) | 21 µM (inactive) | > 100 µM (inactive) | 23.5 µM (inactive) |  | 42.1 µM (inactive) | 40.1 µM |  | 19.3 µM (inactive) | 20 µM (inactive) | 30.2 µM (inactive) | 18.4 µM (inactive) | 53.5 µM (inactive) | 67.3 µM (inactive) | 21.5 µM (inactive) | 32.7 µM (inactive)
11 | CC(NC(=O)Cc1ccccc1)NC(=O)C(C)C(=O)Nc1ccccc1 (stereo unspecified) | 41.6 µM (inactive) | 33.3 µM (inactive) | 44.2 µM (inactive) | > 100 µM (inactive) |  | 23.3 µM (inactive) | > 100 µM (inactive) | > 100 µM (inactive) | 51.6 µM (inactive) | > 100 µM | 16.1 µM (inactive) | > 100 µM (inactive) | > 100 µM (inactive) | 23.7 µM (inactive) | > 100 µM (inactive) | > 100 µM (inactive) | > 100 µM (inactive) | > 100 µM (inactive) | 43.3 µM (inactive)
12 | COc1cc2c(cc1OC)C13CC[N+]4(C)CC5=CCOC6CC(=O)N2C1C6C5CC34[O-] (stereo unspecified) | > 100 µM (inactive) | > 100 µM (inactive) | > 100 µM (inactive) | > 100 µM (inactive) |  | > 100 µM (inactive) | > 100 µM (inactive) | > 100 µM (inactive) | > 100 µM (inactive) | > 100 µM | > 100 µM (inactive) | > 100 µM (inactive) | > 100 µM (inactive) | > 100 µM (inactive) | > 100 µM (inactive) |  | > 100 µM (inactive) | > 100 µM (inactive) | > 100 µM (inactive)
13 | CC(=O)OC[C@@]12C[C@H]3C(=O)C(C)(C)C[C@H]3[C@]1(C)[C@@H](OC(C)=O)[C@]1(O)[C@H]([C@@H](OC(=O)c3ccccc3)[C@@H](C)[C@H]1OC(C)=O)[C@H]2OC(C)=O | > 20 µM (inactive) | > 20 µM (inactive) | > 20 µM (inactive) | 8.71 µM (inactive) | > 20 µM (inactive) | > 20 µM (inactive) | > 20 µM (inactive) | 16.5 µM (inactive) | > 20 µM (inactive) | > 20 µM |  | 12.9 µM (inactive) | > 20 µM (inactive) | > 20 µM (inactive) | 9.02 µM (inactive) |  | > 20 µM (inactive) |  | > 20 µM (inactive)
14 | CCOC1CCC2C(CCC(/C=C/c3ccc(O)c4ncccc34)N2C)C1 (stereo unspecified) | 32.7 µM (inactive) | 33.2 µM (inactive) | 11.7 µM (inactive) | 3.56 µM (inactive) | 24.2 µM (inactive) | 37.4 µM (inactive) | 8.89 µM (inactive) | 3.67 µM (inactive) |  | 40.8 µM | 31.6 µM (inactive) | 38.5 µM (inactive) | 3.21 µM (inactive) | 15.2 µM (inactive) | 3.72 µM (inactive) | 7.03 µM (inactive) | 10.3 µM (inactive) | 25.4 µM (inactive) | 15.4 µM (inactive)
15 | CC(C)C1=CC23CCC4C(C)(C(=O)O)CCCC4(C)C2CC1C1C(=O)N(c2ccc(N4C(=O)C5C6CC7C8(C)CCCC(C)(C(=O)O)C8CCC7(C=C6C(C)C)C5C4=O)cc2)C(=O)C13 (stereo unspecified) | 5.9 µM (inactive) | 16.4 µM (inactive) | 14.7 µM (inactive) | 3.47 µM (inactive) | 4.41 µM (inactive) | 3.45 µM (inactive) |  | 4.3 µM (inactive) |  | 12.6 µM | 14.1 µM (inactive) | 4.43 µM (inactive) | 3.59 µM (inactive) | 6.22 µM (inactive) | 3.51 µM (inactive) | 2.45 µM (inactive) | 3.79 µM (inactive) | 3.96 µM (inactive) | 4.28 µM (inactive)
16 | CC(C)CC(NC(=O)OC(C)(C)C)C(=O)NC(CC(=O)OCc1ccccc1)C(N)=O (stereo not drawn) (Boc-Leu-Asp(OBn)-NH2; configuration not given here) | > 100 µM (inactive) | > 100 µM (inactive) | > 100 µM (inactive) | > 100 µM (inactive) |  | > 100 µM (inactive) | > 100 µM (inactive) | > 100 µM (inactive) | > 100 µM (inactive) | > 100 µM | > 100 µM (inactive) | > 100 µM (inactive) | > 100 µM (inactive) | 58.9 µM (inactive) |  | > 100 µM (inactive) | > 100 µM (inactive) |  | > 100 µM (inactive)
